Literature values as cited in patent US5576012A, “Pharmaceutical aqueous formulations containing a sparingly soluble pharmaceutical active compound with a solubilizing polymeric agent” (priority 1990, dated 1996).
Where two headings read alike, the source gives them in different places.

Assays:
[1] = not given; remark: listed apart in the source

Compound: OC[C@H]1O[C@@H]2O[C@H]3[C@H](O)[C@@H](O)[C@@H](O[C@H]4[C@H](O)[C@@H](O)[C@@H](O[C@H]5[C@H](O)[C@@H](O)[C@@H](O[C@H]6[C@H](O)[C@@H](O)[C@@H](O[C@H]7[C@H](O)[C@@H](O)[C@@H](O[C@H]8[C@H](O)[C@@H](O)[C@@H](O[C@H]9[C@H](O)[C@@H](O)[C@@H](O[C@H]1[C@H](O)[C@H]2O)O[C@@H]9CO)O[C@@H]8CO)O[C@@H]7CO)O[C@@H]6CO)O[C@@H]5CO)O[C@@H]4CO)O[C@@H]3CO [γ-CD, γ-cyclodextrin]
- water-solubility (water): 25.8%

Compound: CCO [ethanol]
- Intravasal hemolytic reactions ([1]; intravasal): detectable

Compound: OC[C@H]1O[C@@H]2O[C@H]3[C@H](O)[C@@H](O)[C@@H](O[C@H]4[C@H](O)[C@@H](O)[C@@H](O[C@H]5[C@H](O)[C@@H](O)[C@@H](O[C@H]6[C@H](O)[C@@H](O)[C@@H](O[C@H]7[C@H](O)[C@@H](O)[C@@H](O[C@H]8[C@H](O)[C@@H](O)[C@@H](O[C@H]1[C@H](O)[C@H]2O)O[C@@H]8CO)O[C@@H]7CO)O[C@@H]6CO)O[C@@H]5CO)O[C@@H]4CO)O[C@@H]3CO [β-CD, β-cyclodextrin]
- toxic action on parenteral administration ([1]; administered parenterally): nephrotoxic action

Compound: CC(O)CO (stereo not drawn) [propylene glycol]
- Intravasal hemolytic reactions ([1]; in vivo): detectable

Compound: CC(C)c1cccc(C(C)C)c1O [propofol, reference compound]
- water-solubility (in words) (active compounds for intravasal use): too low to dissolve the therapeutic dose in an acceptable volume

Compound: OC[C@H]1O[C@@H]2O[C@H]3[C@H](O)[C@@H](O)[C@@H](O[C@H]4[C@H](O)[C@@H](O)[C@@H](O[C@H]5[C@H](O)[C@@H](O)[C@@H](O[C@H]6[C@H](O)[C@@H](O)[C@@H](O[C@H]7[C@H](O)[C@@H](O)[C@@H](O[C@H]1[C@H](O)[C@H]2O)O[C@@H]7CO)O[C@@H]6CO)O[C@@H]5CO)O[C@@H]4CO)O[C@@H]3CO [α-CD, α-cyclodextrin]
- water-solubility (cyclodextrins in water): 17.4%
